Molecular target: T1, Protein mono-ADP-ribosyltransferase TIPARP (Homo sapiens, UniProt Q7Z3E1)
T1 sequence (Q7Z3E1 whole entry): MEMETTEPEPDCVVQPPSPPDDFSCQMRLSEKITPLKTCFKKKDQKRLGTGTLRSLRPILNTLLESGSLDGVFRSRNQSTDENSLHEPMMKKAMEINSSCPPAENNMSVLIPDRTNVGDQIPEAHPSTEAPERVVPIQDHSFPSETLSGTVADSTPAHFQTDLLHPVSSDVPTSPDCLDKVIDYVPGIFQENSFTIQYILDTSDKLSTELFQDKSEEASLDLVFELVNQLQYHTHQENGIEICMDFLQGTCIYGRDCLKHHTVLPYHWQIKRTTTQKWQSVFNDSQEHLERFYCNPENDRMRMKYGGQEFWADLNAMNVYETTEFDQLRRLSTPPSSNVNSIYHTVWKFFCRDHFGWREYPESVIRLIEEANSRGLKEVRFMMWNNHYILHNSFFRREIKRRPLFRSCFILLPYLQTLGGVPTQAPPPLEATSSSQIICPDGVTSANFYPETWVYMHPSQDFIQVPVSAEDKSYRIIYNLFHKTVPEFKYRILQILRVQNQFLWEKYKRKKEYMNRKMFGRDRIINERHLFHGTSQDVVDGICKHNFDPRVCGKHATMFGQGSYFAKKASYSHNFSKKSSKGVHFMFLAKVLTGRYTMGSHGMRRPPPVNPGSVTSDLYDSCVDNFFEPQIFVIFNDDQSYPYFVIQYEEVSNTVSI
Test: In Vitro Enzymology Experiment of PARP2, 3, 5A, 5B, 7, 12, and 15
Description: 1. Preparation of 384-well histone-coated plate: 25 μL of histone solution was added to each well, and the plate was incubated overnight at 4° C.2. Preparation of PBST buffer, blocking buffer, and assay buffer3. The 384-well histone-coated plate was washed three times with PBST buffer. The plate was blocked by 50 μL of blocking buffer for 1 hour at room temperature. The plate was then washed three times with PBST buffer.4. Compound preparation:2000× compound was prepared in a 96-well source plate. 50 nL of the compound was transferred from the source plate to a 96-well intermediate plate, and 39.95 μL of assay buffer was added to each well. The plate was shaken well and centrifuged at 1000 rpm for 1 minute.5 μL of compound DMSO solution was transferred to each well.5. […] Detection:25 μL of Stre-HRP was added.The plate was incubated at room temperature for 1 hour and washed three times with PBS buffer.25 μL of QuantaRed Enhancer mix was added. The plate was incubated for 10 minutes.2.5 μL of QuantaRed Stop Solution was added to terminate the peroxidase reaction, and the plate was shaken for 10 to 30 seconds.7. […] Data processingUsing equation (1) to fit the data in Excel to obtain inhibition valuesinh%=(Max-Signal)/(Max-Min)*100Equation(1)Using equation (2) to fit the data in XL-Fit to obtain IC50 valuesY=Bottom+(Top-Bottom)/(1+(IC5 0/X)*HillSlopeEquation(2)Y is the percentage of inhibition, and X is the compound concentration.

SMILES	IC50 [nM]
Nc1cc(C(F)(F)F)cnc1N1CCN(C(=O)OCCc2c[nH]c(=O)c(C(F)(F)F)c2)CC1 [US20240351997, Example 131]	1.3
O=C(Oc1cccc(-c2c[nH]c(=O)c(C(F)(F)F)c2)c1)N1CCN(c2ncc(C(F)(F)F)cn2)[C@@H](CO)C1 [US20240351997, Example 141]	0.85
O=C(Oc1cccc(-c2c[nH]c(=O)c(C(F)(F)F)c2)c1)N1CCN(c2ncc(C(F)(F)F)cn2)[C@H](CO)C1 [US20240351997, Example 142]	0.74
O=C(Oc1cccc(-c2c[nH]c(=O)c(C(F)(F)F)c2)c1)N1CCN(c2ncc(C(F)(F)F)cn2)[C@@H](CO)C1 [US20240351997, Example 143]	0.61
Cc1cnc(N2C[C@@H](C)N(C(=O)OCCc3c[nH]c(=O)c(C(F)(F)F)c3)C[C@H]2C)nc1 [US20240351997, Example 167]	1.5
C[C@@H]1CN(c2ncc(C3CC3)cn2)[C@H](C)CN1C(=O)OCCc1c[nH]c(=O)c(C(F)(F)F)c1 [US20240351997, Example 180]	1

Reference: BindingDB's records for patent US20240351997 (Shanghai Qilu Pharmaceutical Research and Development Centre, 2024)
